Source: PubChem BioAssay (NCI)
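48-hour exposure; five concentrations; linearly interpolated endpoints. At the GI50, growth is halved. TGI: concentration producing complete growth inhibition.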

What was measured:
Assay in all cases: NCI-60 cell line screen, 48 h
[1] = system: KM12 colon
[2] = system: IGROV1 ovarian
[3] = system: CAKI-1 renal
[4] = system: DU-145 prostate
[5] = system: NCI-H460 lung
[6] = system: HCT-15 colon
[7] = system: COLO 205 colon
[8] = system: UACC-62 melanoma
[9] = system: NCI-H522 lung
[10] = system: A549 NSCLC
[11] = system: OVCAR-8 ovarian
[12] = system: SN12C renal
[13] = system: SK-MEL-28 melanoma
[14] = system: 786-0 renal
[15] = system: HOP-92 NSCLC
[16] = system: NCI-H23 lung
[17] = system: MDA-MB-435
[18] = system: SF-295 CNS
[19] = system: RPMI-8226 leukemia
[20] = system: HL-60(TB) leukemia
[21] = system: ACHN renal
[22] = system: SK-MEL-5 melanoma
[23] = system: NCI-H226 lung
[24] = system: U251 CNS
[25] = system: HOP-62 NSCLC
[26] = system: SF-268 CNS
[27] = system: CCRF-CEM leukemia
[28] = system: LOX IMVI melanoma
[29] = system: MDA-MB-231 breast
[30] = system: UO-31 renal
[31] = system: BT-549 breast
[32] = system: UACC-257 melanoma
[33] = system: SK-OV-3 ovarian
[34] = system: A498 renal
[35] = system: OVCAR-5 ovarian
[36] = system: HT29 colon
[37] = system: T-47D breast
[38] = system: HCT-116 colon
[39] = system: MOLT-4 leukemia
[40] = system: NCI/ADR-RES ovarian
[41] = system: SNB-75 CNS
[42] = system: SF-539 CNS
[43] = system: OVCAR-4 ovarian
[44] = system: OVCAR-3 ovarian
[45] = system: M14 melanoma
[46] = system: MALME-3M melanoma
[47] = system: K-562 leukemia
[48] = system: SW-620 colon
[49] = system: MCF7 breast
[50] = system: HCC-2998 colon
[51] = system: TK-10 renal
[52] = system: HS 578T breast
[53] = system: RXF 393 renal
[54] = system: SR leukemia
[55] = system: SNB-19 CNS
[56] = system: SK-MEL-2 melanoma
[57] = system: EKVX NSCLC
[58] = system: PC-3 prostate

## COc1cc(/C=C\c2cc(OC)c(OC)c(OC)c2)cc(N/C=C\C(=O)c2ccc(OC(F)(F)F)cc2)c1OC
[1]
  GI50: 3.69 µM
  TGI: > 100 µM
[2]
  GI50: 7.06 µM
  TGI: > 100 µM
[3]
  GI50: 4.96 µM
  TGI: > 100 µM
[4]
  GI50: 4.11 µM
  TGI: > 100 µM
[5]
  GI50: 3.34 µM
  TGI: 36.4 µM
[6]
  GI50: 3.42 µM
  TGI: > 100 µM
[7]
  GI50: 2.98 µM
  TGI: 9.37 µM
[8]
  GI50: 6.86 µM
  TGI: > 100 µM
[9]
  GI50: 1.96 µM
  TGI: 6.19 µM
[10]
  GI50: 4.54 µM
  TGI: > 100 µM
[11]
  GI50: 4.59 µM
  TGI: > 100 µM
[12]
  GI50: 4.85 µM
  TGI: > 100 µM
[13]
  GI50: 10.4 µM
  TGI: > 100 µM
[14]
  GI50: 4.34 µM
  TGI: > 100 µM
[15]
  GI50: 12.6 µM
  TGI: > 100 µM
[16]
  GI50: 4.38 µM
  TGI: > 100 µM
[17]
  GI50: 1.84 µM
  TGI: 5.52 µM
[18]
  GI50: 4.12 µM
  TGI: 30.9 µM
[19]
  GI50: 3.66 µM
  TGI: 19.6 µM
[20]
  GI50: 2.8 µM
  TGI: 8.08 µM
[21]
  GI50: 5.56 µM
  TGI: > 100 µM
[22]
  GI50: 3.74 µM
  TGI: > 100 µM
[23]
  GI50: 19.9 µM
  TGI: > 100 µM
[24]
  GI50: 3.46 µM
  TGI: > 100 µM
[25]
  GI50: 7.85 µM
  TGI: > 100 µM
[26]
  GI50: 8.9 µM
  TGI: > 100 µM
[27]
  GI50: 3.55 µM
  TGI: > 100 µM
[28]
  GI50: 5.95 µM
  TGI: > 100 µM
[29]
  GI50: 3 µM
  TGI: 14.5 µM
[30]
  GI50: 5.42 µM
  TGI: > 100 µM
[31]
  GI50: 5.9 µM
  TGI: > 100 µM
[32]
  GI50: 43.3 µM
  TGI: > 100 µM
[33]
  GI50: 5.38 µM
  TGI: > 100 µM
[34]
  GI50: 1.83 µM
  TGI: 7.59 µM
[35]
  GI50: 8.2 µM
  TGI: > 100 µM
[36]
  GI50: 3.07 µM
  TGI: 16.5 µM
[37]
  GI50: 4.16 µM
  TGI: > 100 µM
[38]
  GI50: 3.58 µM
  TGI: > 100 µM
[39]
  GI50: 3.99 µM
  TGI: > 100 µM
[40]
  GI50: 3.04 µM
  TGI: 9.85 µM
[41]
  GI50: 2.65 µM
  TGI: 24 µM
[42]
  GI50: 2.21 µM
  TGI: 5.92 µM
[43]
  GI50: 7.54 µM
  TGI: > 100 µM
[44]
  GI50: 3.48 µM
  TGI: 10.6 µM
[45]
  GI50: 3.46 µM
  TGI: > 100 µM
[46]
  GI50: 14.7 µM
  TGI: > 100 µM
[47]
  GI50: 2.93 µM
  TGI: > 100 µM
[48]
  GI50: 4.09 µM
  TGI: > 100 µM
[49]
  GI50: 4.08 µM
  TGI: > 100 µM
[50]
  GI50: 3.71 µM
  TGI: > 100 µM
[51]
  GI50: 4.79 µM
  TGI: > 100 µM
[52]
  GI50: 6.44 µM
  TGI: > 100 µM
[53]
  GI50: 2.18 µM
  TGI: 7.17 µM
[54]
  GI50: 2.75 µM
  TGI: 41.1 µM
[55]
  GI50: 4.97 µM
  TGI: > 100 µM

## O=c1[nH]c2ccccc2c(=O)n1/N=C/c1ccc(O)cc1
[1]
  TGI: > 100 µM
[2]
  TGI: > 100 µM
[3]
  TGI: > 100 µM
[4]
  TGI: > 100 µM
[5]
  TGI: > 100 µM
[6]
  TGI: > 100 µM
[7]
  TGI: > 100 µM
[8]
  TGI: > 100 µM
[10]
  TGI: > 100 µM
[11]
  TGI: > 100 µM
[12]
  TGI: > 100 µM
[56]
  TGI: > 100 µM
[13]
  TGI: > 100 µM
[14]
  TGI: > 100 µM
[15]
  TGI: 90.4 µM
[16]
  TGI: > 100 µM
[17]
  TGI: > 100 µM
[18]
  TGI: > 100 µM
[19]
  TGI: > 100 µM
[57]
  TGI: > 100 µM
[20]
  TGI: > 100 µM
[21]
  TGI: > 100 µM
[22]
  TGI: > 100 µM
[23]
  TGI: > 100 µM
[24]
  TGI: > 100 µM
[25]
  TGI: 48 µM
[26]
  TGI: > 100 µM
[58]
  TGI: > 100 µM
[27]
  TGI: > 100 µM
[28]
  TGI: > 100 µM
[29]
  TGI: > 100 µM
[30]
  TGI: > 100 µM
[31]
  TGI: > 100 µM
[32]
  TGI: > 100 µM
[33]
  TGI: > 100 µM
[34]
  TGI: > 100 µM
[35]
  TGI: > 100 µM
[36]
  TGI: > 100 µM
[37]
  TGI: > 100 µM
[38]
  TGI: > 100 µM
[39]
  TGI: > 100 µM
[40]
  TGI: > 100 µM
[41]
  TGI: > 100 µM
[42]
  TGI: > 100 µM
[44]
  TGI: > 100 µM
[45]
  TGI: > 100 µM
[47]
  TGI: > 100 µM
[48]
  TGI: > 100 µM
[49]
  TGI: > 100 µM
[51]
  TGI: > 100 µM
[52]
  TGI: 74.6 µM
[54]
  TGI: > 100 µM
[55]
  TGI: > 100 µM
